Measurements from US10933068B2, “Modulators of DUX4 for regulation of muscle function” (GENEA BIOCELLS USA (HOLDINGS), INC., priority 2016, dated 2021).

What was measured:
[1] = test system: Normal cell lines (Genea 002 and Genea 015) and an FSHD-affected cell line (Genea 096); assay: Phenotypic marker screen (Example 2): cell count / toxicity; type: cell-based, human; settings: compound added for 24 hours; for toxicity (cell count): analyzed at the end of the myotube stage, cell lines tested overall
Procedure: (§1) Briefly, stem cell lines were cultured in commercially available media, mTeSR (Stem Cell Technologies) or M2 (Genea Biocells) and dissociated into single cells using Passaging Solution (Genea Biocells). Cells were plated in Myogenic Induction Medium to induce myogenic differentiation and incubated at 37° C. and 5% CO2 for 7 to 10 days while performing media changes every other day. Once confluent, cells were dissociated into single cells using Passaging Solution and replated in Myoblast Medium (Genea Biocells) while performing media changes every other day. After 7-10 days the medium was switched to Myotube Medium (Genea Biocells) without any further media changes.
In one example, experiments are set up according to Example 1 with cells being cultured in collagen 1-coated optical bottom 96-well plates. At the end of the culture period cells are fixed with 4% formalin and immunofluorescence stained for DUX4, Ki67, MyoD and/or MF20 or MHC. […] Staining with MF20 or MHC is used to visualize myotube morphology. High-content screening is performed to quantitatively measure the proportion of DUX4, Ki67 and MyoD-positive cells as well as myotube diameter and the number of nuclei per myotube.
(§2) Normal cell lines (Genea 002 and Genea 015) and an FSHD-affected cell line (Genea 096) were cultured and differentiated according to Example 1. Compounds were added for 24 hours either at the beginning of the myoblast stage or at the end of the myoblast stage. Cells were further differentiated to myotubes and analyzed 7 days later at the end of the myotube stage (see FIG. 2) by immunofluorescence staining for MyoD, Ki67 and MF20.

[2] = test system: FSHD-affected Gen049 human Embryonic Stem Cells (hESCs); assay: ASK10 cytotoxicity in DUX4-GFP induction experiments; type: cell-based; settings: FIG. 11A cited
Text: Precursors were then converted to myoblasts by culture in Stage 2 Medium for 7 days with media changes every second day until confluence. […] After treatment, confluent myoblasts were switched to Stage 3 Myotube Medium (Genea Biocells). Cells were imaged hourly for phase and DUX4-GFP reporter fluorescence with the Incucyte live cell imaging system (Essen Bioscience) and Incucyte analysis software reported GFP+ events/mm2. […] Nuclei were quantified using the In Cell 6000 imaging and analysis suite.

[3] = test system: Genea049 reporter cell line; assay: Cell death / overall cell numbers by video microscopy; type: cell-based, human; settings: 24 hours pulse at the beginning of the myoblast stage
Procedure: In another example, Genea049 reporter cell line was differentiated according to Example 1 and the compounds were added for 24 hours at the beginning of the myoblast stage. Cells were further differentiated to myotubes (see FIG. 2) and analyzed continuously by video fluorescence microscopy using an Incucyte Zoom instrument (Essen Bioscience).

DUX4-GFP reporter [4] = assay: Chemically induced DUX4-GFP reporter induction (ASK10 and analogs); type: cell-based, human
Text: Cells were transduced with a lentivirus coding for a synthetic DUX4-responsive promoter driving a nuclear turboGFP reporter gene ([…] et al., 2015) and selected using G418 antibiotic (Thermo Fisher). Myogenic differentiation was induced using the Genea Biocells muscle differentiation protocol (Caron et al., 2016). […] Media was changed every other day for 10 days. Myogenic precursors were then re-seeded by treatment with Passaging Solution (Genea Biocells) followed by Neutralizing Solution (Genea Biocells), were pelleted, and were plated at 2500 cells/cm2 in Stage 2 Myoblast Medium (Genea Biocells). […] After treatment, confluent myoblasts were switched to Stage 3 Myotube Medium (Genea Biocells). Cells were imaged hourly for phase and DUX4-GFP reporter fluorescence with the Incucyte live cell imaging system (Essen Bioscience) and Incucyte analysis software reported GFP+ events/mm2. […] Nuclei were quantified using the In Cell 6000 imaging and analysis suite. The system as described herein can be used as a sensitive low-, medium- or high-throughput screening assay to identify compounds that suppress DUX4 following an experimental procedure as outlined in FIG. 19. […] Test compounds are added either at the beginning of differentiation stage 2 or stage 3 and may be present throughput the experiment.

[5] = test system: normal (Genea016) and FSHD-affected (Genea049 and Genea050) cell lines; assay: Timing of compound contact: cell counts; type: cell-based, human
Procedure: as §1, with “changes. After 4-7 days many multi-nucleated myotubes were observed and the cells were analyzed using a suitable assay.” for “changes.”
(§3) In another example, normal (Genea016) and FSHD-affected (Genea049 and Genea050) cell lines were differentiated according to Example 1. A DNA methyltransferase inhibitor (Compound #1) (ASK10) or a histone methyltransferase inhibitor (Compound #2) (ASK19) was added for 24 hours either at the beginning of the myoblast stage (Group 1) or at the end of the myoblast stage (Group 2). Cells were further differentiated to myotubes and analyzed 7 days later at the end of the myotube stage (see FIG. 2). Effects on cell counts (FIGS. 11A and 11B) and MF20-positive myotubes (FIGS. 12A and 12B) were assessed.

[6] = test system: normal (Genea016) and FSHD-affected (Genea049 and Genea050) cell lines; assay: Timing of compound contact: MF20-positive myotubes; type: cell-based, human; settings: 24 hours treatment, analyzed at the end of the myotube stage
Procedure: as §1, with “changes. After 4-7 days many multi-nucleated myotubes were observed and the cells were analyzed using a suitable assay.” for “changes.”
as §3

[7] = test system: Normal cell lines (Genea 002 and Genea 015) and an FSHD-affected cell line (Genea 096); assay: Phenotypic marker screen (Example 2): myogenesis, MF20 and myotube length; type: cell-based, human; settings: compound added for 24 hours
Procedure: as §1
In one example, experiments are set up according to Example 1 with cells being cultured in collagen 1-coated optical bottom 96-well plates. […] High-content screening is performed to quantitatively measure the proportion of DUX4, Ki67 and MyoD-positive cells as well as myotube diameter and the number of nuclei per myotube.
as §2, with “Compounds were added for 24 hours either at the beginning of the myoblast stage or at the end of the myoblast stage.” left out

[8] = test system: DUX4 reporter in the FSHD-affected Genea049 reporter cell line; assay: DUX4 reporter, high-content imaging; type: cell-based, human; settings: added for 24 hours at the end of the myoblast stage; analyzed 7 days later
Procedure: (§4) Lentivirus constructs were used to stably integrate a DUX4 reporter into human embryonic stem cell lines (FIG. 5). Cells were plated in collagen I-coated 12-well plates (Corning BIOCOAT™-Cat #354500) in M2 hESC maintenance medium (Genea Biocells). Since cell lines grow at different rates and may optimally transduce at distinct cell densities, each line was plated at four different cell densities and transduced for 2 hours using a vector preparations diluted at 1:20 (50 ul/ml) in M2 medium containing 8 ug/ml polybrene. A pilot “kill curve” was established using the same non-transfected cell lines to help define the baseline antibiotic concentration required during the selection process. Based on the results, all transduced cells were selected with 300 ug/ml of G418 for at least 10 days. The antibiotic selected cells were further expanded in M2 (2× T175 flasks for each cell line) and samples were cryopreserved as stocks of 0.5 to 1×10^6 cells/vial.
In another example, Genea049 reporter cell line was differentiated according to Example 1 and the compounds were added for 24 hours at the end of the myoblast stage. Cells were further differentiated to myotubes and analyzed 7 days later at the end of the myotube stage (see FIG. 2) by fixation, counterstaining nuclei with Hoechst and visualizing nuclei and the reporter by high-content imaging.

[9] = test system: DUX4 reporter in the FSHD-affected Genea049 reporter cell line; assay: DUX4 reporter, time-lapse video fluorescence microscopy; type: cell-based, human; settings: added for 24 hours at the beginning of the myoblast stage; analyzed continuously
Procedure: as §4
In another example, experiments are set up according to Example 1 with FSHD-affected DUX4 reporter cells being cultured in collagen I-coated 96-well plates. […] The cells are continuously observed by time-lapse video microscopy (IncuCyte Zoom, Essen Bioscience) and the number of GFP-positive (DUX4-expressing) nuclei are detected and quantified throughout the culture period. […]

DUX4-GFP reporter [10] = assay: Rescue of ASK10- / ASK10 analog-induced DUX4-GFP by ASK19 pre-treatment; type: cell-based, human
Procedure: Genea's FSHD-affected Gen049 human Embryonic Stem Cells (hESCs) were cultured on geltrex (Thermo Fisher) using the feeder-free mTeSR system (StemCell Technologies). Cells were transduced with a lentivirus coding for a synthetic DUX4-responsive promoter driving a nuclear turboGFP reporter gene (Rickard et al., 2015) and selected using G418 antibiotic (Thermo Fisher). Myogenic differentiation was induced using the Genea Biocells muscle differentiation protocol (Caron et al., 2016). Reporter stem cells were treated with Accutase (StemCell Technologies) and plated as single cells at 5200 cells/cm2, then changed to Stage 1 Myogenic Induction Medium (Genea Biocells). Media was changed every other day for 10 days. Myogenic precursors were then re-seeded by treatment with Passaging Solution (Genea Biocells) followed by Neutralizing Solution (Genea Biocells), were pelleted, and were plated at 2500 cells/cm2 in Stage 2 Myoblast Medium (Genea Biocells).
In rescue experiments, Stage 2 Day 1 cells were then treated with either 1 uM ASK19 or DMSO vehicle for 24 hours. Precursors were then converted to myoblasts by culture in Stage 2 Medium for 7 days with media changes every second day until confluence. Myoblasts were passaged and seeded at 9000 cells/cm2 in 96 well format, allowed to grow to confluence, and treated in Stage 2 Medium for indicated time (0-48 hours) with 0.01 uM-3 uM of ASK10, ASK10 analog, DMSO vehicle, or media only (FIGS. 15A-15B). After treatment, confluent myoblasts were switched to Stage 3 Myotube Medium (Genea Biocells). Cells were imaged hourly for phase and DUX4-GFP reporter fluorescence with the Incucyte live cell imaging system (Essen Bioscience) and Incucyte analysis software reported GFP+ events/mm2. After imaging, cells were fixed in 10% Formalin (Thermo Fisher) for 15 minutes and stained for 2 hours using PBS (Invitrogen) with 5% BSA (Thermo Fisher), 0.25% Triton-X (Thermo Fisher), and 1:5000 Hoechst (Thermo Fisher) DNA dye. Nuclei were quantified using the In Cell 6000 imaging and analysis suite.

DUX4 expression = assay: Chaetocin induction of DUX4 expression, immunofluorescence staining; type: cell-based, human; settings: myotubes from FSHD-affected cell lines, DUX4 E5-5 antibody
Procedure: as §1, with “changes. After 4-7 days many multi-nucleated myotubes were observed and the cells were analyzed using a suitable assay.” for “changes.”
(§5) In myotubes from FSHD-affected cell lines DUX4 expression was observed by immunofluorescence staining using DUX4 E5-5 antibody, either spontaneously or by transfecting cells with a DUX4 expression vector (FIG. 3). In some cases, the expression of DUX4 in myogenic cells may be a rare event. Thus, to increase the assay window and sensitivity, chaetocin was used to increase the number of cells expressing DUX4 (FIG. 4A). […] In some examples, compounds may be screened in the presence of 50-200 nM chaetocin, a compound described to result in elevated levels of DUX4 expression in human myoblast cultures (FIG. 2).

[11] = test system: myotubes from FSHD-affected cell lines; assay: Chaetocin toxicity, total nuclei count; type: cell-based, human; settings: at 50-100 nM
Procedure: as §5

Nc1ncn([C@H]2C[C@H](O)[C@@H](CO)O2)c(=O)n1 [ASK10, decitabine]
toxicity (cell count) [1]: highly toxic at higher doses | toxicity to FSHD-affected cells ([1]; FSHD-affected cells (Genea 096)): less so | cytotoxicity [2]: did not display any noticeable cytotoxicity | time of cell death after the compound had been removed [3]: 6 to 7 days | EC50 (DUX4-GFP reporter [4]; Homo sapiens, DUX4-GFP cell number per well, read-out: EC50 at which the most significant DUX4 expression induction was detected): ≥ 1000 nM | DUX4 expression activation versus vehicle control (DUX4-GFP reporter [4]; about 48 hours post-exposure): 12-15 fold | time at which DUX4 induction plateaus (DUX4-GFP reporter [4]; post-exposure): about 120 hours | toxicity, normal versus FSHD-affected myoblasts ([5]; 24 hours treatment): much more toxic for normal myoblasts than for FSHD-affected myoblasts | toxicity (cell counts), FSHD ([5]; added at the end of the myoblast stage (Group 2), FSHD): not toxic | toxicity (cell counts), normal ([5]; added at the end of the myoblast stage (Group 2), normal): only mildly toxic | toxicity (cell counts) ([5]; added for 24 hours at the beginning of the myoblast stage (Group 1)): significant toxicity at higher doses

CC[C@H](C)n1cc(C)c2c(C(=O)NCc3c(C)cc(C)[nH]c3=O)cc(-c3ccc(N4CCNCC4)nc3)cc21 [ASK19, GSK126]
toxicity (cell count) [1]: not toxic | MF20-positive myotubes (myogenesis) [6]: dose-dependent increase | myogenesis, cells expressing MF20 ([7]; analyzed at the end of the myotube stage): more MF20-positive cells | myotube length ([7]; all cell lines tested): longer myotubes | DUX4-positive cells [8]: no effect | DUX4-positive cells [9]: suppressed DUX4 expression and/or function | EC50 (DUX4-GFP reporter [10]; ASK10- and ASK10-15-induced, tentative, read-out: EC50 of rescue of induced DUX4-GFP production): 250 to 500 nM | GFP+ events over time, ASK19/ASK10 curve (DUX4-GFP reporter [10]; ASK19 pre-treatment then ASK10, FIG. 18): extends along the bottom of the graph | GFP+ events over time, ASK19/ASK10-15 curve (DUX4-GFP reporter [10]; ASK19 pre-treatment then ASK10-15, FIG. 18): extends along the bottom of the graph | rescue of ASK10- and ASK10 analog-induced DUX4 activation (DUX4-GFP reporter [10]; pre-treatment with ASK19): rescues | toxicity (cell counts) ([5]; any of the cell lines under any treatment regimen): not toxic

CN1C(=O)[C@@]23C[C@]4([C@]56C[C@@]78SS[C@@](CO)(C(=O)N7[C@H]5Nc5ccccc56)N(C)C8=O)c5ccccc5N[C@@H]4N2C(=O)[C@]1(CO)SS3 [chaetocin]
chaetocin concentration found to induce DUX4 expression (DUX4 expression): 50 to 100 nM | toxicity [11]: only mild toxicity
